Reference: the NIST ThermoML archive (doi:10.1021/je1013476)
± gives the expanded uncertainty stated by the source.

Settings: 101.33 kPa, Liquid; for viscosity: Capillary tube (Ostwald / Ubbelohde) method; for mass density: Vibrating tube method

| Compound | viscosity (288.15 K) [mPa·s] | mass density (288.15 K) [kg/m3] | viscosity (293.15 K) [mPa·s] | mass density (293.15 K) [kg/m3] | viscosity (298.15 K) [mPa·s] | mass density (298.15 K) [kg/m3] | viscosity (303.15 K) [mPa·s] | mass density (303.15 K) [kg/m3] | viscosity (313.15 K) [mPa·s] | mass density (313.15 K) [kg/m3] |
| --- | --- | --- | --- | --- | --- | --- | --- | --- | --- | --- |
| CCCO [propan-1-ol] | 2.507 ± 0.024 | 807.55 ± 0.12 | 2.202 ± 0.021 | 803.52 ± 0.13 | 1.973 ± 0.019 | 799.45 ± 0.13 | 1.733 ± 0.017 | 795.47 ± 0.13 | 1.381 ± 0.014 | 787.28 ± 0.13 |
| CCCCCCCCO [octan-1-ol] | 11.07 ± 0.1 | 828.63 ± 0.12 | 9.161 ± 0.085 | 825.2 ± 0.12 | 7.688 ± 0.072 | 821.74 ± 0.12 | 6.404 ± 0.06 | 818.23 ± 0.12 | 4.62 ± 0.044 | 811.22 ± 0.12 |
| CCCCCO [pentan-1-ol] | 4.682 ± 0.045 | 818.32 ± 0.13 | 4.025 ± 0.039 | 814.63 ± 0.13 | 3.497 ± 0.034 | 810.96 ± 0.13 | 3.022 ± 0.029 | 807.26 ± 0.13 | 2.312 ± 0.023 | 799.78 ± 0.14 |
| CCO [ethanol] | 1.313 ± 0.013 | 793.65 ± 0.12 | 1.216 ± 0.012 | 789.34 ± 0.12 | 1.132 ± 0.011 | 785.07 ± 0.12 | 1.01 ± 0.01 | 780.72 ± 0.12 | 0.824 ± 0.008 | 771.97 ± 0.13 |
| CCOC(=O)OCC [diethyl carbonate] | 0.864 ± 0.009 | 980.39 ± 0.07 | 0.803 ± 0.008 | 974.83 ± 0.07 | 0.757 ± 0.008 | 969.15 ± 0.08 | 0.7 ± 0.007 | 963.39 ± 0.08 | 0.616 ± 0.006 | 952.1 ± 0.08 |
